Values of other authors, collected in patent US6660287B1, “Prevention of spoilage of produce using acidified expanded amorphous aluminum silicate impregnated with chlorite” (Bio-Cide International, Inc., priority 1999, dated 2003).

Tested on: mice

Row | SMILES | chromosomal aberrations or increased numbers of micronuclei in the bone marrow (subchronic and acute oral administration, mice (Meier et al.)) | mutagenic potential (mouse, in vivo, po)
1 | [O][Cl+][O-] [chlorine dioxide] | failed to induce any chromosomal aberrations or increased numbers of micronuclei | 
2 | OCl [hypochlorite] |  | weak positive effect
